A short description of assay [1]: cytotoxicity in HEK-293T cells, dose response, cytotoxicity control for BCR NF-kB inhibitor project, luminescence, B-cell screen hits (AID 489021).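 Further: HEK-293T cells carrying an NF-kB luciferase reporter; cells exposed to compound for about 14 hours before viability readout.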 Format: functional, cell-based.
For assay [2], the target named is T1, High affinity choline transporter 1 (Homo sapiens, UniProt Q9GZV3).
T1 sequence (Q9GZV3 whole entry): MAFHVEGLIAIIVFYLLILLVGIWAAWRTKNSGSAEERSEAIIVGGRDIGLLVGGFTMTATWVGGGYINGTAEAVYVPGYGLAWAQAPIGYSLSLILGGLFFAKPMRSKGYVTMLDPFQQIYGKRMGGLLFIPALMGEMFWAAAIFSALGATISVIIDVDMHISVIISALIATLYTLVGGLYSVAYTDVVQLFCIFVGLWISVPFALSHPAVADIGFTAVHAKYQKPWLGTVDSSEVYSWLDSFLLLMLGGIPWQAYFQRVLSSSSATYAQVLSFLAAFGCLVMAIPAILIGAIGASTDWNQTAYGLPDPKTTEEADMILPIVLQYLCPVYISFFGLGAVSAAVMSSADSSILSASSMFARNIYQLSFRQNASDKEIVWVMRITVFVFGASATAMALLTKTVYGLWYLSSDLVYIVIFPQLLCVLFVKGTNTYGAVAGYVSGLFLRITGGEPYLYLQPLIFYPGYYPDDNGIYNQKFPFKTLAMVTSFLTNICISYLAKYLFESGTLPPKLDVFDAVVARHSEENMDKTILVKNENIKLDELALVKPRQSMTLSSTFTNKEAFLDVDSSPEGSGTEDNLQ
As to the kind of experiment: CHT activators, dose response, cell-based, 10-point CRC, membrane potential dye (AID 602376). Type of assay: functional.

For assay [3], the target named is Luciferin 4-monooxygenase (Photinus pyralis, UniProt P08659). Kind of assay: firefly luciferase enzyme inhibitors, dose response, biochemical, luminescence (AID 1891).
Chain of Luciferin 4-monooxygenase (P08659 whole entry): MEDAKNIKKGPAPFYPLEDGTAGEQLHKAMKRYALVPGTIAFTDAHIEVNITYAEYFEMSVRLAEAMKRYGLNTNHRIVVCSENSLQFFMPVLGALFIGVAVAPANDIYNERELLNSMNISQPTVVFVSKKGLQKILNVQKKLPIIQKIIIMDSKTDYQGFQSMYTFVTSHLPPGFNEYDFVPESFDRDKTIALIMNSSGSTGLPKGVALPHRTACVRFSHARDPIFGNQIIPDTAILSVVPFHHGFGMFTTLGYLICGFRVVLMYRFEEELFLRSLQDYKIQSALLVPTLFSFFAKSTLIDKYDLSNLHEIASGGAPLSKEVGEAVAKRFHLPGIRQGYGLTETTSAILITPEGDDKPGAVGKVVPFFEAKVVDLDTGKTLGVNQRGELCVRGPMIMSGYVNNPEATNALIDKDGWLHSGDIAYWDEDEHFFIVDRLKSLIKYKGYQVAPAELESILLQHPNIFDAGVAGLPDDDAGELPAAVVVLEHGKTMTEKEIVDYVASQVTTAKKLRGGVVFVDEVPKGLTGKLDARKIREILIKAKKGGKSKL
Assay [4] can be described thus: Luminescence Cell-Based Dose Confirmation HTS to Identify Inhibitors of Platelet Dense Granule Release. [Related pubchem assays: 1663 (Primary HTS), 1678 (Summary of Project)]. Format: functional.
Assay [5] has as its target T2, Sentrin-specific protease 8 (Homo sapiens, UniProt Q96LD8).
T2 sequence (Q96LD8 whole entry): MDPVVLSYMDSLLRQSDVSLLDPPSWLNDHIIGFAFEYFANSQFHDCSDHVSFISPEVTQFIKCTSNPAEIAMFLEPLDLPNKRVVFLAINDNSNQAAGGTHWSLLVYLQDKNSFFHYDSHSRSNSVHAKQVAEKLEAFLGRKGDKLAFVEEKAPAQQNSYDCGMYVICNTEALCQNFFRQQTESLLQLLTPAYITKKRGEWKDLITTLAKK
As to the kind of experiment: SENP8 protease inhibitors, SAR follow-up, biochemical, luminescence (AID 504501). Type of assay: functional.

In the next assay the target is T3, Caspase-3 (Homo sapiens, UniProt P42574).
T3 sequence (P42574 whole entry): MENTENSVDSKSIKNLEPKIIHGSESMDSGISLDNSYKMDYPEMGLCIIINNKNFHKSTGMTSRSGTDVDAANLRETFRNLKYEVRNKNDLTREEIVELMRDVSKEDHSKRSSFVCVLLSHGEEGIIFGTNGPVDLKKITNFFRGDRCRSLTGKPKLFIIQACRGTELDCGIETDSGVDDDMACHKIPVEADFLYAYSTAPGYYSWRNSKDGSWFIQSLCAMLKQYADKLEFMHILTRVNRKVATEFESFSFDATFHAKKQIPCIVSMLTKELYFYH
As to the kind of experiment: SAR Analysis of small molecule inhibitors of Sentrin-specific proteases (SENPs) using a Caspase-3 Selectivity assay. [Related pubchem assays (depositor defined):AID2540, AID2599, AID434973, AID489001]. Format: functional.

Assay [6] concerns the target T4, Sentrin-specific protease 6 (Homo sapiens, UniProt Q9GZR1).
T4 sequence (Q9GZR1 whole entry): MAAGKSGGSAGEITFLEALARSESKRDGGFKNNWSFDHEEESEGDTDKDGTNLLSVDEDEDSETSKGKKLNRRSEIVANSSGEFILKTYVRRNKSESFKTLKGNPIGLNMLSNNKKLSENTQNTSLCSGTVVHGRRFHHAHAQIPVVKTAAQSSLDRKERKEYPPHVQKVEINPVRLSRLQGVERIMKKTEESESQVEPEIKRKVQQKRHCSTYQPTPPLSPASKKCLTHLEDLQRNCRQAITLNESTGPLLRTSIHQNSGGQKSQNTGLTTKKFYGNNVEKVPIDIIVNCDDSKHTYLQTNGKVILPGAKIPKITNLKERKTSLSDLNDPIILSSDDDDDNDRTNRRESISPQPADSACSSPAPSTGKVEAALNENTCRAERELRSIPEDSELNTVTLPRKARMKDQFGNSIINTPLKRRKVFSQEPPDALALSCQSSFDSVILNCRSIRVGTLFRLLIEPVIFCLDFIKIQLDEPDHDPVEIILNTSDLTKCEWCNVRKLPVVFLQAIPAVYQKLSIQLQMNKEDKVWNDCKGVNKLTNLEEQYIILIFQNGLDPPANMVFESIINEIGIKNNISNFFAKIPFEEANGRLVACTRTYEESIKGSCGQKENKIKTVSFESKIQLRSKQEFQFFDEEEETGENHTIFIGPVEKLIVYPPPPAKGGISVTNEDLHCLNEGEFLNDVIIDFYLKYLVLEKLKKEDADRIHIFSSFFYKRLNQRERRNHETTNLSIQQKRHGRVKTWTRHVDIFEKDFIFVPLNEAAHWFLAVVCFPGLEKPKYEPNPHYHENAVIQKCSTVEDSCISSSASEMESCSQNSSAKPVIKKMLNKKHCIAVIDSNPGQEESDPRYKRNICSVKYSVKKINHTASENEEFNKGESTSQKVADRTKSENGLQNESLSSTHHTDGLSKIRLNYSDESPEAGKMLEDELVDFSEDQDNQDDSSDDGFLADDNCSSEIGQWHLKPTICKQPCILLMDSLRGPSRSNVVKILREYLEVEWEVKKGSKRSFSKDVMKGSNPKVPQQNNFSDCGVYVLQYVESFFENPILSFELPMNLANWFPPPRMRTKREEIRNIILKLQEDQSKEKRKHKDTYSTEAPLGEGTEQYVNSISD
Kind of assay: SAR Analysis of small molecule inhibitors of Sentrin-specific protease 6 (SENP6) using a Luminescent assay. [Related pubchem assays (depositor defined):AID2582, AID2599]. Type of assay: functional.

Assay [7] has as its target T5, Sentrin-specific protease 7 (Homo sapiens, UniProt Q9BQF6).
T5 sequence (Q9BQF6 whole entry): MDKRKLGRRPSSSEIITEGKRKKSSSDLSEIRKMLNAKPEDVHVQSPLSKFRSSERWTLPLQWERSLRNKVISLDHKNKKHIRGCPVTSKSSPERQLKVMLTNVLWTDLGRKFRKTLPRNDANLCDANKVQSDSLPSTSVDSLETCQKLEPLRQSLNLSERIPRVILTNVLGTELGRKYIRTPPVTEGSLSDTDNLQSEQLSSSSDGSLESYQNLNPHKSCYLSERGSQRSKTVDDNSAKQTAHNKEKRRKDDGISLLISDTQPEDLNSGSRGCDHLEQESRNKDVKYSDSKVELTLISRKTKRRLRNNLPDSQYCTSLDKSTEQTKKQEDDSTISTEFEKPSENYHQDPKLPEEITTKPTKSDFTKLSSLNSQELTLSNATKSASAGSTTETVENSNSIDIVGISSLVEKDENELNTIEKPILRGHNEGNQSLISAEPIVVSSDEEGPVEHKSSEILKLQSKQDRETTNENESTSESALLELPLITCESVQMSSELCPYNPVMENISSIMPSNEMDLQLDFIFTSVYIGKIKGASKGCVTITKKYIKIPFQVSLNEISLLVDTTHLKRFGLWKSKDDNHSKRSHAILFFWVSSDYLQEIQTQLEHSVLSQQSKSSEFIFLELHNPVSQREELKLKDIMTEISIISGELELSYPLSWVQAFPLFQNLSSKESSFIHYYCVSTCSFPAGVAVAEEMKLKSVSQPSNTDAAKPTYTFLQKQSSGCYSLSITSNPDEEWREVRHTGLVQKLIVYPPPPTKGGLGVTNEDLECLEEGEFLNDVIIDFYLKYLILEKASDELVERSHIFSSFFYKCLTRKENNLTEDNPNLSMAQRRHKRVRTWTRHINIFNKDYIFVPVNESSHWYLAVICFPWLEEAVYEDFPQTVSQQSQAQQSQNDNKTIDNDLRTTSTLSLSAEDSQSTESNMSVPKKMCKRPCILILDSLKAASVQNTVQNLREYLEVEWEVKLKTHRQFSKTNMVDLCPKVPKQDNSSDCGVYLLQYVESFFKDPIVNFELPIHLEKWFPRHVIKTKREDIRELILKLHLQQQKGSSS
Kind of assay: SENP7 protease inhibitors, SAR follow-up, biochemical, luminescence (AID 504497). Format: functional.

In a further assay the target is LIM domain kinase 1 (Homo sapiens, UniProt P53667). As to the kind of experiment: Navigating the Kinome. Panel member name: LIMK1. Format: functional.
Chain of LIM domain kinase 1 (P53667 whole entry, the tested form may be a part): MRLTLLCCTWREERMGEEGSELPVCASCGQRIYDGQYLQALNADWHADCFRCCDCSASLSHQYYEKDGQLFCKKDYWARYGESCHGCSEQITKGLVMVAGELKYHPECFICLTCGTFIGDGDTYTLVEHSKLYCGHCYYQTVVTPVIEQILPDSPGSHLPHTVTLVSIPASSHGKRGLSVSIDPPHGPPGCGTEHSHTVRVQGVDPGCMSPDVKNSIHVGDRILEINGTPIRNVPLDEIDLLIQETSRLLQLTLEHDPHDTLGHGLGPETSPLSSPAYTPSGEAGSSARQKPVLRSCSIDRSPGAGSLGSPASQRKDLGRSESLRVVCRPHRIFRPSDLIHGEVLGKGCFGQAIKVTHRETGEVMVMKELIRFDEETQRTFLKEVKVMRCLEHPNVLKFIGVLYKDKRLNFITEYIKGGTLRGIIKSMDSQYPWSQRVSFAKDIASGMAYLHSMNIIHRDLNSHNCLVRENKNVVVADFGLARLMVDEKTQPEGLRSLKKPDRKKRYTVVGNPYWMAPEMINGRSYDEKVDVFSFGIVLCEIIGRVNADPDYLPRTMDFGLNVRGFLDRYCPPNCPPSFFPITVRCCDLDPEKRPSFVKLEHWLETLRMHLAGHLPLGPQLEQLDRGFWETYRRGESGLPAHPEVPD
Assay [8] addresses Serine/threonine-protein kinase Chk1 (Homo sapiens, UniProt O14757). Type of assay: functional.
Assay [9] has as its target T6, Serine/threonine-protein kinase Nek2 (Homo sapiens, UniProt P51955).
T6 sequence (P51955 whole entry): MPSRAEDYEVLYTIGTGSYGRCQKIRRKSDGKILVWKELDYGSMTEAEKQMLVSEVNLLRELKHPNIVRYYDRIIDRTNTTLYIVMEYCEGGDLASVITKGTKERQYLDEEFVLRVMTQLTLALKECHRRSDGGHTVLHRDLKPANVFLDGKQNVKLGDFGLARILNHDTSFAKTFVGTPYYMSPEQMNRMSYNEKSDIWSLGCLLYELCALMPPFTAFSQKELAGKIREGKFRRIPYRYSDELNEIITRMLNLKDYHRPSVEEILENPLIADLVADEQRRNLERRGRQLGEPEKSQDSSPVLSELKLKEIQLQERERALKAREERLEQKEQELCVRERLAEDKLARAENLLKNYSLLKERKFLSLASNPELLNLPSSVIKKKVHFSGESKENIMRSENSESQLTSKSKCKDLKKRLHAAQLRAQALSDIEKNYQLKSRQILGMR
Type of assay: functional.

The target in assay [10] is Cyclin-dependent kinase 8 (Homo sapiens, UniProt P49336). As to the kind of experiment: Navigating the Kinome. Panel member name: CDK8. Format: functional.
Chain of Cyclin-dependent kinase 8 (P49336 whole entry): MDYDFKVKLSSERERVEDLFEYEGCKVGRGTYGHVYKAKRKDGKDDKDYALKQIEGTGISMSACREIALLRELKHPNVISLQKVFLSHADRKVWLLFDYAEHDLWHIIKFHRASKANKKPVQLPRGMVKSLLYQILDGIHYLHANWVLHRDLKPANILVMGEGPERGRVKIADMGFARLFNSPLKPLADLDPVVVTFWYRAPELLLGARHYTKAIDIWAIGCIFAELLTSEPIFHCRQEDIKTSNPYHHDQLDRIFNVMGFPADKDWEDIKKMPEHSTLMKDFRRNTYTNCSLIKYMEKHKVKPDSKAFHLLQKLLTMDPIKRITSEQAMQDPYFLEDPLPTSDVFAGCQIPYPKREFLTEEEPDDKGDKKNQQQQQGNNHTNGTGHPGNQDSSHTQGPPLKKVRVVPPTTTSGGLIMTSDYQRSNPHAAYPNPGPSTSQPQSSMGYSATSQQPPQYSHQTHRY
For assay [11], the target named is Melanin-concentrating hormone receptor 1 (Homo sapiens, UniProt Q99705). As to the kind of experiment: Late-stage fluorescence-based counterscreen for antagonists of the G-protein coupled receptor 7 (GPR7): cell-based dose response assay to identify antagonists of the melanin-concentrating hormone receptor 1 (MCHR1) Set 5. Type of assay: functional. Background: Counterscreens check selectivity or assay interference.
Chain of Melanin-concentrating hormone receptor 1 (Q99705 whole entry): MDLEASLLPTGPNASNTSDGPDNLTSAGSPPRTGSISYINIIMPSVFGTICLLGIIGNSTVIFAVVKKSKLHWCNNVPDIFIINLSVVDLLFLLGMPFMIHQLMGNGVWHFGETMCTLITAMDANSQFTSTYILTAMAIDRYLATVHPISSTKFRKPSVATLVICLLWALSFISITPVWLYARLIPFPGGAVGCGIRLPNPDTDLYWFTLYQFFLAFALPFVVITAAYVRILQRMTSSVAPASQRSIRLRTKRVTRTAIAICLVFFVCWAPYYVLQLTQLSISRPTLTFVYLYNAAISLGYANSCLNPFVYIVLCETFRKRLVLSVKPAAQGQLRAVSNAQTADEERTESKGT

Calls of active or inactive are those of the source. Some results are limits rather than exact numbers.

What is called IC50 is the concentration at which inhibition is half-maximal. The term EC50 denotes the concentration at which the effect is half-maximal. Usually Ki stands for the dissociation constant of the complex between target and ligand, obtained from inhibition or displacement.

Chain of Serine/threonine-protein kinase Chk1 (O14757 whole entry): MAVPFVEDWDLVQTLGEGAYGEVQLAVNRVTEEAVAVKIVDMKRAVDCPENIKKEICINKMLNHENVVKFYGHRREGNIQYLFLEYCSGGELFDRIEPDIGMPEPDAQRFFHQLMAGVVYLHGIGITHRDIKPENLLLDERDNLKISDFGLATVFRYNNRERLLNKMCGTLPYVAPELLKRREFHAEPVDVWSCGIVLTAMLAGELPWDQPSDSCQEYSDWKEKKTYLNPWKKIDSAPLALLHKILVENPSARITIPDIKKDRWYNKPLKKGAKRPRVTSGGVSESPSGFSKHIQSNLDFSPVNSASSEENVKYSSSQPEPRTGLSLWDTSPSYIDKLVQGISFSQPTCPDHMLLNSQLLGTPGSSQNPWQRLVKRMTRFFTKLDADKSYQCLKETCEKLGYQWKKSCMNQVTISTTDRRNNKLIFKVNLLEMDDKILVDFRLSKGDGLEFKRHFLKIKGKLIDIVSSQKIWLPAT

Take `COc1cc(C2C(C#N)=C(N)Oc3cc(N)ccc32)cc(OC)c1OC` (stereo not drawn): the IC50 in [1] is > 80 µM (inactive). For the same compound, the EC50 in assay [2] was 13.5 µM (active).

For `CC(Oc1ccccc1)C(=O)N(CCC1=CCCCC1)c1c(N)n(Cc2ccccc2)c(=O)[nH]c1=O` (stereo not drawn), the EC50 was > 112 µM (not active) in [3], > 112 µM (not active) in [4] and 15 µM (active) in assay [2].

`Cc1c(C(=O)Nc2nc3ccccc3s2)oc2ccccc12`: the IC50 (in assay [5]; on Caspase-3; in assay [6]; in [7]) was > 99 µM (inactive) in each case.

With `CCN(CC)S(=O)(=O)c1ccc(C(=O)Nc2nc3c(C)ccc(Cl)c3s2)cc1`, the IC50 (in [5]; on Caspase-3; in assay [6]; in assay [7]) was > 99 µM (inactive) throughout.

For the compound `O=S(=O)(Nc1ccc2ccccc2c1O)c1ccc(F)cc1`, the Ki was 2.51 µM (active) at LIM domain kinase 1, 3.16 µM (active) in [8], 3.16 µM (active) in assay [9] and 2.51 µM (active) in [10].

As to `CCOc1cccc(Oc2c(Cl)cnn(Cc3cccc4ccccc34)c2=O)c1`, the IC50 in assay [11] was 18.8 µM (inactive).

(Values after ChEMBL document CHEMBL1201862, “PubChem BioAssay data set” (2004).)
